Entries after “also recorded” stand apart in the source; their conditions may differ. Values belong to the compound of their own block, whether it stands above or below them.
What was measured:
topo II-DNA complex [1] = molecular target: T1, topo II-DNA complex (Drosophila melanogaster, UniProt P15348); settings: cited from earlier work
T1 construct: purchased Amersham
T1 sequence (P15348 1-1447): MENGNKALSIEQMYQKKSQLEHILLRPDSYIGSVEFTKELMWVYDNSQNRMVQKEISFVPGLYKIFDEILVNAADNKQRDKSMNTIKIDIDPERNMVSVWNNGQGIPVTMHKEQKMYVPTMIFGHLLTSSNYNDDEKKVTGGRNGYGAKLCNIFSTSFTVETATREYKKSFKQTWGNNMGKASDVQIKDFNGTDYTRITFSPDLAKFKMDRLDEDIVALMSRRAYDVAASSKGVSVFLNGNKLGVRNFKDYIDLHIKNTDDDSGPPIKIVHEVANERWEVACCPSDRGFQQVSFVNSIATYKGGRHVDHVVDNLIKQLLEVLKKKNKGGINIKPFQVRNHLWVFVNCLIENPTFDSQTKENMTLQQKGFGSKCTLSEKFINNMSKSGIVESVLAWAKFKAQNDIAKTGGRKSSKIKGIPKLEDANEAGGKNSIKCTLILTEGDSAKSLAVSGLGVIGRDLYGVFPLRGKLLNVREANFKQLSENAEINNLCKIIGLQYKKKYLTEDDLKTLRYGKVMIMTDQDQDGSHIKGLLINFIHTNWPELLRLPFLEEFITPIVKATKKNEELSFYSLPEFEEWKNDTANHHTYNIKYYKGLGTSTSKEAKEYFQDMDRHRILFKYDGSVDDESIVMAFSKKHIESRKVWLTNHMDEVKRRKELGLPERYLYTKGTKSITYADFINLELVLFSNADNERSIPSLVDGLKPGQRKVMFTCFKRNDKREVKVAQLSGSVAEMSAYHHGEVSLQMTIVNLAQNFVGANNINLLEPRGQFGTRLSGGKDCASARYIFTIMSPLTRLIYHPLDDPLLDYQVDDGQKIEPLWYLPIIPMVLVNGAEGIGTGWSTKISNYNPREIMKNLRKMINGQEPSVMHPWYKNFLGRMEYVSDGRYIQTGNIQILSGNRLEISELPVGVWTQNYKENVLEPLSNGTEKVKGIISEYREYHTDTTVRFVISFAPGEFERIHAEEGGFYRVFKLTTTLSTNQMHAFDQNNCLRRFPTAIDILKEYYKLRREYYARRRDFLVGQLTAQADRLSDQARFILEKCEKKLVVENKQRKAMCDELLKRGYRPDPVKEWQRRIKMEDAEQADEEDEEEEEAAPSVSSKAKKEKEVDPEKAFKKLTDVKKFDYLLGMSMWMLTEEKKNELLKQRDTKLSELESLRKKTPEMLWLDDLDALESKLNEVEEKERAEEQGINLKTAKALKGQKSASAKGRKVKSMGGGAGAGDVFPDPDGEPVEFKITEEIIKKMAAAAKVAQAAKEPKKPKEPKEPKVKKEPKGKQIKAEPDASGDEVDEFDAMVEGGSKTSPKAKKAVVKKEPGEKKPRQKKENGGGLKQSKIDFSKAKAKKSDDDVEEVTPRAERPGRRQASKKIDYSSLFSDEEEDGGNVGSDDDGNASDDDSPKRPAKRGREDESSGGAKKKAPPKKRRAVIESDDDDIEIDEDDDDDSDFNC

[2] = system: G-quadruplex structure formed on the HT4 template; assay: DNA synthesis arrest assay (Taq polymerase primer extension); assay type: biochemical; settings: 55° C.
Protocol: FIG. 12A and FIG. 12B. Compound 2b (see FIG. 3) concentration-dependent block of Taq polymerase DNA synthesis by the G-quadruplex structure formed on the HT4 template at 55° C. (A) Autoradiogram of a sequencing gel showing enhanced DNA synthesis pausing at the G-quadruplex site with increasing concentrations of 2b. Arrows indicate the positions of the full length product of DNA synthesis, the G-quadruplex pausing site, and the free primer. (B) Quantitation of the gel using ImageQuaNT software.
This assay is similar to that described by Han and co-workers (Han et al., 1999). Briefly, primers (24 nM) labeled with [γ-^32P] were mixed with template DNA (12 nM)) in a Tris-HCl buffer (10 mM Tris, pH 8.0) containing K^+ (50 mM for the HT4 template) and denatured by heating at 90° C. for 5 min. After cooling down to room temperature, 2b was added at various concentrations and incubated at room temperature for 15 min. The primer extension reactions were initiated by adding dNTP (final concentration 100 μM), MgCl2 (final concentration […]), and Taq DNA polymerase (2.5 U/reaction, Boehringer Mannheim). The products were separated on a 12% polyacrylamide sequencing gel. The gels were then dried and visualized on a PhosphorImager (Molecular Dynamics model 445 S1). […]

HT-29 colon = assay: Cancer cell growth inhibition assay (MTT); assay type: cell-based, human
Protocol: (§1) Exponentially growing cells in 0.1 ml medium were seeded on Day 0 in 96-well microtiter plates. On Day 1, 0.1-ml aliquots of medium containing graded concentrations test agent were added in duplicate to the cell plates. After incubation at 37° C. in a humidified incubator, the plates were centrifuged briefly (1-2 min at 1000 rpm), and 100 μl of the growth medium was removed. Cell cultures were incubated with 50 μl of 3-(4,5-dimethylthiazyl-2-yl)-2,5-diphenyltetrazolium bromide MTT, 1 mg/ml in Dubecco's PBS for 4 h at 37° C. The resulting purple formazan precipitate was solubilized with 200 μl of 0.4 N HCl in isopropyl alcohol. Absorbance was quantitated using a Bio-Rad Model 3550 microplate reader at a test wavelength of 570 nm and a reference wavelength of 630 nm. Absorbance values were transferred to a 486 personal computer, and the IC50 values were determined using the computer program EZ-ED50 (Chen et al., 1993).

MDA-231 breast = assay: Cancer cell growth inhibition assay (MTT); assay type: cell-based, human
Protocol: as §1

H226 non-small-cell lung = assay: Cancer cell growth inhibition assay (MTT); assay type: cell-based, human
Protocol: as §1

DU-145 prostate = assay: Cancer cell growth inhibition assay (MTT); assay type: cell-based, human
Protocol: as §1

Raji lymphoma = assay: Cancer cell growth inhibition assay (MTT); assay type: cell-based, human
Protocol: as §1

human topoisomerase II = molecular target: T2, human topoisomerase II (Homo sapiens, UniProt P11388); assay: Decatenation assay (catenated to decatenated KDNA); assay type: biochemical; settings: drug concentration that inhibits 50% of conversion of catenated to decatenated KDNA; read-out: topoisomerase II inhibition IC50
T2 construct: purchased TopoGEN, Inc
T2 sequence (P11388 whole entry): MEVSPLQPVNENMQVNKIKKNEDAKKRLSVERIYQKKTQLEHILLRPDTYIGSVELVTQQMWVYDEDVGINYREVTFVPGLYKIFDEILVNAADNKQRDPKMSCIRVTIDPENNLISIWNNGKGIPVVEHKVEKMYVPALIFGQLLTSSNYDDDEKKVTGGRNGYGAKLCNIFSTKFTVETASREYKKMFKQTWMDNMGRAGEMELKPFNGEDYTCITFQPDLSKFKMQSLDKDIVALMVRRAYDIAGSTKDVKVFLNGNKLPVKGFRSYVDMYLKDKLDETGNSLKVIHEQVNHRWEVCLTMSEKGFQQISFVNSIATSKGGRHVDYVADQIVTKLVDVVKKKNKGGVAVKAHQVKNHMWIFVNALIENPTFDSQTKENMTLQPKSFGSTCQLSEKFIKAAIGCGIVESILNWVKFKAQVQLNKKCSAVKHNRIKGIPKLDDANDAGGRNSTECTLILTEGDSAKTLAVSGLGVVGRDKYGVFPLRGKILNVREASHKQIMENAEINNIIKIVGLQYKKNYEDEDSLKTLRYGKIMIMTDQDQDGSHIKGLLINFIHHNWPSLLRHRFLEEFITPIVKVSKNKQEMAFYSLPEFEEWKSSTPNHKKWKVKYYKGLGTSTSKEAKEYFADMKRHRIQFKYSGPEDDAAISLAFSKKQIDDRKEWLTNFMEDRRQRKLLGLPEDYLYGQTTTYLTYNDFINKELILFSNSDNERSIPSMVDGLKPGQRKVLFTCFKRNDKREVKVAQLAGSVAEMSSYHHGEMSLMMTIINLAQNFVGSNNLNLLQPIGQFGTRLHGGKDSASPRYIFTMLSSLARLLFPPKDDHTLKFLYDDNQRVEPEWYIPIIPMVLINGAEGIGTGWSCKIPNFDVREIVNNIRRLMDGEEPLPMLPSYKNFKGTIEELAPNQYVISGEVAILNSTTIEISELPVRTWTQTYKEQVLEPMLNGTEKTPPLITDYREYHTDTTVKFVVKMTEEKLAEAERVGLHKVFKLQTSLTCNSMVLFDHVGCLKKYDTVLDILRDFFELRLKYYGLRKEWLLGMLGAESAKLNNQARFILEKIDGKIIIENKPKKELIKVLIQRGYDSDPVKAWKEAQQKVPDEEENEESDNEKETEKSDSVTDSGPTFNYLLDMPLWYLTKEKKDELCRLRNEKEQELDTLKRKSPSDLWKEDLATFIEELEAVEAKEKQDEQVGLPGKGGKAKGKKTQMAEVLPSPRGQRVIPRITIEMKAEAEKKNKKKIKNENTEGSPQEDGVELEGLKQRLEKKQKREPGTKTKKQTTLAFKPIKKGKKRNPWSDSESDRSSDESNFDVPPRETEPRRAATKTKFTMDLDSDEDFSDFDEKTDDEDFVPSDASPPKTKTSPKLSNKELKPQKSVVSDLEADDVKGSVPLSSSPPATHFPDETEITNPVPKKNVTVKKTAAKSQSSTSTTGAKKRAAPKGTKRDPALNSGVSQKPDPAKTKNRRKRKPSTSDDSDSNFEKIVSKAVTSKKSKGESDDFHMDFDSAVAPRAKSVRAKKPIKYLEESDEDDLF
Protocol: Kinetoplast DNA (KDNA), human topoisomerase II (170 KDa form), and DNA Unwinding Kit including supercoiled pHOT1 DNA, relaxed DNA marker, buffers, and human topoisomerase I were purchased from TopoGEN, Inc. Agarose was purchased from Fisher. Quinobenzoxazine A-62176 (S-enantiomer) was provided by Abbott Laboratories or prepared by published procedure (Chu and Maleczka, Jr., 1987).
0.25 μg of KDNA was incubated with various concentrations of the quinobenzoxazines in a 20-μl reaction mixture containing 50 mM Tris-HCl (pH 8), 120 mM KCl, 10 mM MgCl2, and 0.5 mM each of ATP, dithiothreitol, and […] BSA for 10 min. Two units of human topoisomerase II (170 KDa form) were added to the mixture, which was then incubated at 37° C. for 30 min. The reaction was terminated with 0.1 volume of stop buffer (5% sarkosyl, 0.025% bromophenol blue, and 50% glycerol). The decatenation products were analyzed on 1% agarose gels run with 0.5 μg/ml ethidium bromide. The gels were scanned by FluoroImager and analyzed by ImageQuaNT software (Molecular Dynamics).

B16 melanoma = assay: Cancer cell growth inhibition assay (MTT); assay type: cell-based, murine
Protocol: as §1

supercoiled pHOT1 DNA = assay: DNA unwinding assay; assay type: biochemical; settings: concentration shifting topoisomers to the middle position between relaxed and supercoiled bands
Protocol: A 22 μl mixture of 0.25 μg of supercoiled pHOT1 DNA, 5 units of topoisomerase I in topoisomerase I buffer (provided with the kit) was incubated at 37° C. for 30 min. Two μl of various concentrations of drug was added, and the incubation was continued for another 30 min. The reactions were terminated by addition of SDS to 1%. Proteinase K was added to the reaction mixtures to ca. 50 μg/ml, and the reaction mixtures were incubated for 15-20 min at 56° C. After adding 0.1 volume of 10×gel loading buffer, the reaction mixtures were extracted with an equal volume of CIA (Chloroform:isoamyl Alcohol; 24:1). The samples were loaded on an 1% agarous gel that was cast in TPE buffer (36 mM Tris-HCl, pH 7.8, 1 mM EDTA, 30 mM NaH2PO4) and 0.2 μg/ml Chloroquine. The gel was run in TPE buffer at room temperature at 10 volts for 20 h, destained in water for 15 min, stained in 0.05 μg/ml ethidium bromide for 15 min, and destained again in water for 15 min. The gel was then photographed, scanned by FluoroImager, and analyzed by ImageQuaNT software (Molecular Dynamics).

human telomerase = assay: Telomerase inhibition assay (HeLa cell extract); assay type: biochemical
Protocol: The assay used crude HeLa cell extract as the source of human telomerase. It measures the incorporation of ^32P-labeled dGTP into the primer extension of human telomere synthesis (Sun et al., 1998). […] Specific examples of such dual-acting compounds include compounds 2b and 2a (FIG. 3).
The assay was performed by using 5′-end biotinylated d[TTAGGG]3 as the telomere primer. Reaction mixtures (20 μl) containing 5 μl cell lysate (S-100), 50 mM Tris-OAc (pH 8.5), 50 mM K-OAc, 1 mM MgCl2, 5 mM BME, 1 mM spermidine, 1 μM telomere primer, 1.5 μM [α-^32P]-dGTP (800 Ci/mmol), 1 mM dATP, and 1 mM dTTP were incubated at 37° C. for 1 hr, and the reactions were terminated by adding 20 μl of […] streptavidin-coated Dynabeads suspension containing 10 mM Tris-HCl (pH 7.5), 1 mM EDTA, 2M KCl, and a 500 cpm biotinylated internal control. Streptavidin-coated Dynabeads bind selectively to the desired target (5′-biotinylated primer), forming a magnetic bead-targeted complex. The complex was separated from the suspension using a Dynal MPC magnet and washed several times with 2×SSC buffer containing 0.1% SDS to eliminate [α-^32P]-dGTP background. Telomerase reaction products were separated from the magnetic beads by protein denaturation with 5.7 M guanidine-HCl at 90° C. for 30 min. After ethanol precipitation, products were resolved on denaturating 10% polyacrylamide gel.

sea urchin embryo system = assay: Sea urchin embryo system
[3] = system: prostate cell line DU-145; assay: Cytotoxicity of III in combination with Norfloxacin; assay type: cell-based; settings: given alone
Protocol: FIG. 11. Effect of increasing concentrations of Norfloxacin on the cytotoxic effect of QQ58, compound III in FIG. 2 in the prostate cell line DU-145. Compound III was either given alone (●) or in combination with Norfloxacin at concentrations of 2.58 (♦), 19.37 (♦), or 87.33 (▪) μg/ml. For additions of 2.58 and 19.37 μ/ml of Norfloxacin, the IC50 of compound III was increased by approximately 14- and 20-fold.
as §1, with “The resulting purple formazan precipitate was solubilized with 200 μl of 0.4 N HCl in isopropyl alcohol.” left out
In separate studies, the IC50 of III and the IC10, IC20, and IC50 of Norfloxacin were determined for DU-145, a prostate cell line.

topo II-DNA complex [4] = molecular target: T1, topo II-DNA complex; assay: Psorospermin competition study (DNA strand breakage assay); assay type: biochemical; settings: 0.5-10 μM drug, psorospermin, topo II present
Protocol: 5′^32P-labeled DNA was incubated with Drosophila topo II in the same buffer as the one in the topo II cleavage reaction in the presence of various amounts of either A-62176, Norfloxacin, or both. The incubation reactions took place at 30° C. for 10 min before 10 μM (final concentration) of psorospermin was added to the mixtures. The reactions were continued for an additional 5 min and then terminated by adding 5 μg of calf thymus DNA, followed by heating at 95° C. for 15 min. In the presence of piperidine, this procedure induces strand breakage at the drug modification sites (Hansen et al., 1996). The samples were subjected to phenol/chloroform extraction followed by ethanol precipitation.
In the presence of topo II, the reactivity of psorospermin is enhanced more than 40-fold with the guanine at the +4′ position at site B in FIG. 7 (Kwok et al., 1998a and 1998b). A DNA strand breakage assay was used to locate the position of alkylation of DNA by the epoxide of psorospermin upon intercalation to the base pairs between the +1 and +2 positions at site B within the topo II-DNA complex (Kwok et al., 1998a). Psorospermin has subsequently been used to probe the binding sites for m-AMSA (Kwok et al., 1998a). In the present study, this same assay was performed to determine the binding site of A-62176 on DNA in the presence of topo II.

Compound: COc1cc2c(c3oc4c(O)cccc4c(=O)c13)C[C@H]([C@@]1(C)CO1)O2 [Psorospermin]
enhancement of reactivity with guanine at +4′ position of site B in the presence of topo II (topo II-DNA complex [1]): more than 40 fold

primer extension by Taq DNA polymerase ([2]; 100 μM): completely inhibited | polymerase pausing at the G-quadruplex site ([2]; increasing concentration): enhanced pausing | IC50 (HT-29 colon): 26 ± 1 nM | IC50 (MDA-231 breast): 5 ± 1 nM | IC50 (H226 non-small-cell lung): 13 ± 5 nM | IC50 (DU-145 prostate): 30 ± 10 nM | IC50 (Raji lymphoma): 34 ± 2 nM | IC50 (human topoisomerase II): 240 nM | IC50 (B16 melanoma): 20 ± 2 nM
Compound: Cl.NC1CCN(c2c(F)cc3c(=O)c(C(=O)O)cn4c3c2Oc2c-4ccc3ccccc23)C1 (stereo not drawn) [Compound 2b, 1-(3-Aminopyrrolidin-1-yl)-2-fluoro-4-oxo-4H-pyrido[3,2,1-k,l]-benzo[f]-phenoxazine-5-carboxylic Acid]
DNA unwinding concn (supercoiled pHOT1 DNA): 3 µM | telomerase inhibition (qualitative) (human telomerase): dual-acting; also recorded: inhibit telomerase | chromosomal aberrations (sea urchin embryo system): cause chromosomal aberrations

Compound: CCn1cc(C(=O)O)c(=O)c2cc(F)c(N3CCNCC3)cc21 [Norfloxacin]
potency relative to III (fold less potent) [3]: at least 1000 fold | psorospermin alkylation at site B (competition) (topo II-DNA complex [4]): no competition

Reference: patent US6528517B1, “Synthesis of quinobenzoxazine analogues with topoisomerase II and quadruplex interactions for use as antineoplastic agents” (Board of Regents, The University of Texas System, priority 1998, dated 2003)
